According to ChEMBL document CHEMBL4732253, “Free energy perturbation in the design of EED ligands as inhibitors of polycomb repressive complex 2 (PRC2) methyltransferase” (Bioorg Med Chem Lett, 2021):
In brackets after ≈: the same amount, converted by molar mass.

Assays:
[1] = Intrinsic clearance in rat hepatocytes assessed per million cells; format: ADME, cell-based, Hepatocyte; settings: read-out: CLH
[2] = target: Polycomb protein EED (Homo sapiens, UniProt O75530); test: Binding affinity to EED (unknown origin) assessed as dissociation constant by SPR analysis
Chain of Polycomb protein EED (O75530 whole entry): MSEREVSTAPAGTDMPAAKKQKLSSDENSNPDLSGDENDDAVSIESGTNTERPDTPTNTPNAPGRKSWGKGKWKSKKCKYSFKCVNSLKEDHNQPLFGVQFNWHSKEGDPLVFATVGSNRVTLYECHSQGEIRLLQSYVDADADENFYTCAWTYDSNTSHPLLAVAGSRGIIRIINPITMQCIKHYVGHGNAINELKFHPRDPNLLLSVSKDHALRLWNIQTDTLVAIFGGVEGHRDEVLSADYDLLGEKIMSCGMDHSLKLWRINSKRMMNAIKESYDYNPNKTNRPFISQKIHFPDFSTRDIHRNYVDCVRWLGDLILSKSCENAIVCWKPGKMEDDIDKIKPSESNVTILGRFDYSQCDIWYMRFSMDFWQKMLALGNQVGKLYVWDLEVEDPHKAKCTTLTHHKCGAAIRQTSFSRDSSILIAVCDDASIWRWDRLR

[3] = Lipophilicity, log D of the compound in Octanol/phosphate buffer at pH 7.4 by shake-flask method; format: physicochemical
[4] = Inhibition of PRC2 in human G-401 cells assessed as reduction in methylation of H3K27 trimethylation by HTRF assay; format: cell-based
[5] = Intrinsic clearance in human liver microsomes; format: ADME, Microsome; settings: read-out: CLH
[6] = Solubility of compound in PBS at pH 7.4 measured for 24 hrs; format: physicochemical

SMILES	hepatocyte CLint [1]	Kd [2]	logD [3]	IC50 [4]	microsomal CLint [5]	solubility at 24 h [6]
Cc1ncccc1-c1cnc(NCc2c(F)cc(C#N)c3c2CCO3)n2cnnc12	10 µL/min/1e6 cells	15000 nM	2.2	102 nM	28 µL/min/mg	3 µM (≈ 1.2 µg/mL)
COc1cc(F)c(CNc2ncc(-c3cccnc3C)c3nncn23)c2c1OCC2	4 µL/min/1e6 cells	305000 nM	2.3	15500 nM	20 µL/min/mg	21 µM (≈ 8.53 µg/mL)
Cc1ncccc1-c1cnc(NCc2c(F)cc(F)c3c2CCO3)n2cnnc12	9 µL/min/1e6 cells	1200 nM	2.6	11 nM	9 µL/min/mg	4 µM (≈ 1.58 µg/mL)
Cc1ncccc1-c1cnc(NCc2c(F)ccc3c2CCO3)n2cnnc12	6 µL/min/1e6 cells	400 nM	2.5	5 nM	15 µL/min/mg	
Cc1ncccc1-c1cnc(NCc2c(F)cc(N)c3c2CCO3)n2cnnc12	7 µL/min/1e6 cells	500 nM	1.8	50 nM	13 µL/min/mg	
Cc1ncccc1-c1cnc(NCc2c(F)cc(Cl)c3c2CCO3)n2cnnc12	9 µL/min/1e6 cells	2400 nM	3.2	16 nM	20 µL/min/mg	0.2 µM (≈ 0.0822 µg/mL)
Cc1ncccc1-c1cnc(NCc2c(F)cc(O)c3c2CCO3)n2cnnc12	50 µL/min/1e6 cells		1.8	15 nM	9 µL/min/mg	5 µM (≈ 1.96 µg/mL)
